Earlier results on 2 compounds are cited in patent publication EP3466870B1, “SURFACE-MODIFIED SODIUM HYPOCHLORITE PENTAHYDRATE CRYSTAL, AND METHOD FOR PRODUCING SAME” (Nippon Light Metal Company, Ltd., priority 2016, dated 2017).

Like-named read-outs stand apart in the source and are kept apart here.

For this data set the following is noted: in water at 25°C.

As for `O=C(O)C(=O)O` [oxalic acid], the pKa – broadly, the negative logarithm of the acid dissociation constant – runs as follows: (first value listed) 1.04; (second value listed) 3.82.

As to `O=C(O)O` [carbonic acid], the pKa runs as follows: (first value listed) 6.11; (second value listed) 9.87.
